Read-outs that look alike come from different tables or passages of the source.
Assays:
Stat3 = target: T1, Stat3 (Mus musculus, UniProt P42227); experiment: EMSA of nuclear extracts, Stat3 DNA-binding activity to hSIE probe; type: biochemical; details: in vitro
T1 construct: Nuclear extracts were prepared from NIH3T3/hEGFR cell that overexpress human epidermal growth factor (EGF) receptor and stimulated with EGF; endogenous in cells; host or cells: NIH3T3/hEGFR fibroblasts, EGF-stimulated (6 ng/ml, 15 min), nuclear extract
Procedure: Nuclear Extract Preparation and Analysis by EMSA of HK-Designated Platinum Complexes.
Nuclear extracts were prepared from NIH3T3/hEGFR cell that overexpress human epidermal growth factor (EGF) receptor and stimulated with EGF (6 ng/ml) for 15 min. Nuclear extracts were pre-incubated with compounds for 30 min at room temperature prior to incubation with radiolabeled probe. The ^32P-labeled oligonucleotide probe used is hSIE (high affinity sis-inducible element, m67 variant, 5′-[…]-3′) (SEQ ID NO:1) that binds both Stat1 and Stat3.
Other platinum (IV) complexes were evaluated for inhibitory activity against STAT DNA-binding in vitro.

A549 cells = experiment: MTT assay, percent survival of A549 cells; type: cell-based; details: A549; for IC50: Table 2, read-out: Calculated IC 50 (uM concentration)
Procedure: 1. Prepare a suspension of A549 cells at 2×10^5 cells per mL in supplemented DMEM/F12 growth medium.
2. Plate 2×10^4 cells per well in a 96 well cell culture plate by adding 100 μL of stock suspension to each well.
3. For each platinum compound (already in solution), prepare a readily usable stock solution in DMEM/F12 medium.
4. For each compound generate triplicate trials of 0, 10, 20, 30, 40, 50, 60, and 70 μM concentration. This is achieved in situ by adding appropriate volumes of stock solution to each well along with the volume of untreated medium necessary to generate the desired concentration in a final volume of 200 μL.
5. Gently agitate plates to mix contents. Incubate at 37° C., 7% CO2 for 45 hours.
6. Add 20 μL of 5 mg/mL MTT solution (in PBS) to each well.
7. Gently agitate plates to mix contents and incubate an additional 3 hours to allow product development.
8. Remove plates from incubator and agitate to cause settling of formazan product.
9. Aspirate out liquid contents of each well using needle and syringe and discard.
10. Add 200 μL DMSO to each well to dissolve formazan product.
11. Agitate plates until all of the formazan product is in solution and no purple crystals remain on the bottom surface of the wells.
12. Read the absorbance of each well at […] using Varian software for Cary 50 UV-vis Spectrophotometer with fiber optic probe accessory.
(§1) MTT assays are used for the quantitative determination of cellular proliferation and activation and for the quantitation of in vitro tumor cell sensitivity to anti-cancer compounds. The assay is based on the cleavage of the yellow tetrazolium salt MTT into purple colored formazan by metabolically active cells. Solubilized formazan product can be photometrically quantitated using an ELISA plate reader. A decrease in the number of living cells results in a decrease in total metabolic activity which leads to a decrease in color formation. Platinum complexes of the present invention were tested in MTT assays using A549 cells to determine anti-cancer cell activity. […] FIGS. 1, 2, and 4 show percent survival versus platinum complex concentration in graphical form.
as §1, with “FIGS. 8, 9,” for “FIGS. 1, 2,”, “and 11” for “and 4”

T1 sequence (P42227 whole entry): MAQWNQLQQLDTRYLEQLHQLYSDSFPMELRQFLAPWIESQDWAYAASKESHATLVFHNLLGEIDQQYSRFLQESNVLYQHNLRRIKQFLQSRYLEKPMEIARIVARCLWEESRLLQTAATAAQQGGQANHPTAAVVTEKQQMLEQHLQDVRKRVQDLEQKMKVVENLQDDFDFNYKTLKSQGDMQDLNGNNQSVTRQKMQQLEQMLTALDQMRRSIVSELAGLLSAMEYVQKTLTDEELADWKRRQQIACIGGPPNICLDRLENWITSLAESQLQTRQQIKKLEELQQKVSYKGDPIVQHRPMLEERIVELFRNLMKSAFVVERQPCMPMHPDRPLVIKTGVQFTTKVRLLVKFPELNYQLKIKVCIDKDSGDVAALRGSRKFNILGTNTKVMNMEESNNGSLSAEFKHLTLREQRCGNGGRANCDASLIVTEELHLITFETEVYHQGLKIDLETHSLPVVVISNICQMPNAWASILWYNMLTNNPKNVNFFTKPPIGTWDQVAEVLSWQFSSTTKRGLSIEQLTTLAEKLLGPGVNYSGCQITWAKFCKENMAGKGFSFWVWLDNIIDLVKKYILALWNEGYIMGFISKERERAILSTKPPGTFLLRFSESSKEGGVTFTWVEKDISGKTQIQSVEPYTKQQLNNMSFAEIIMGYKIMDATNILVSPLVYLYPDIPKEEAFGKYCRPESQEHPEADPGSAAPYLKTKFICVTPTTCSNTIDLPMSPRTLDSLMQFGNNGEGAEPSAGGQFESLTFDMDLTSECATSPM

[NH2][Pt]([NH2])([Cl])([Cl])([Br])[N+](=O)[O-] [CPA-10]
Disruption of Stat3 activity / ability to bind its consensus binding sequence (Stat3): strongly disrupt Stat3 activity

O=C1C(Br)=CC2=C(c3ccccc3C(=O)[O-])C3C=C(Br)C([O-])=C(Br)C3OC2=C1Br.[NH2][Pt]([NH2])([Cl])([Cl])[N+](=O)[O-] (centres unmarked) [CPA-30]
Disruption of Stat3 activity / ability to bind its consensus binding sequence (Stat3): strongly disrupt Stat3 activity

[NH2][Pt]([NH2])([Cl])([Cl])([N+](=O)[O-])[o+]1c2cc(=O)ccc-2c(-c2ccccc2C(=O)O)c2ccc(O)cc21 [CPA-39]
Disruption of Stat3 activity / ability to bind its consensus binding sequence (Stat3): strongly disrupt Stat3 activity
Average Absorbance (A549 cells; Table 1, 10 μM): 2.5313
Percent Survival (A549 cells; Table 1, 10 μM): 107.2085%
Average Absorbance (A549 cells; Table 1, 20 μM): 2.4307
Percent Survival (A549 cells; Table 1, 20 μM): 102.9478%
Average Absorbance (A549 cells; Table 1, 30 μM): 2.3599
Percent Survival (A549 cells; Table 1, 30 μM): 99.9492%
Average Absorbance (A549 cells; Table 1, 40 μM): 1.9611
Percent Survival (A549 cells; Table 1, 40 μM): 83.0587%
Average Absorbance (A549 cells; Table 1, 50 μM): 1.0318
Percent Survival (A549 cells; Table 1, 50 μM): 43.7000%
Average Absorbance (A549 cells; Table 1, 60 μM): 0.7776
Percent Survival (A549 cells; Table 1, 60 μM): 32.9338%
Average Absorbance (A549 cells; Table 1, 70 μM): 0.9798
Percent Survival (A549 cells; Table 1, 70 μM): 41.4976%
IC50 (A549 cells; linear trend from percent survival vs. concentration data of Table 1): 56.4 µM
Average Absorbance (A549 cells; Table 3, 10 μM): 2.6556
Percent Survival (A549 cells; Table 3, 10 μM): 108.7069%
Average Absorbance (A549 cells; Table 3, 20 μM): 2.4616
Percent Survival (A549 cells; Table 3, 20 μM): 100.7655%
Average Absorbance (A549 cells; Table 3, 30 μM): 2.0894
Percent Survival (A549 cells; Table 3, 30 μM): 85.5295%
Average Absorbance (A549 cells; Table 3, 40 μM): 1.3568
Percent Survival (A549 cells; Table 3, 40 μM): 55.5405%
Average Absorbance (A549 cells; Table 3, 50 μM): 0.6566
Percent Survival (A549 cells; Table 3, 50 μM): 26.8779%
Average Absorbance (A549 cells; Table 3, 60 μM): 0.6086
Percent Survival (A549 cells; Table 3, 60 μM): 24.9130%
Average Absorbance (A549 cells; Table 3, 70 μM): 0.6166
Percent Survival (A549 cells; Table 3, 70 μM): 25.2405%

[NH2][Pt]([NH2])([Cl])([Cl])[N+](=O)[O-].c1ccc(-c2oc(-c3ccccc3)c3ccccc23)cc1 [CPA-41]
Disruption of Stat3 activity / ability to bind its consensus binding sequence (Stat3): strongly disrupt Stat3 activity
Average Absorbance (A549 cells; Table 1, 10 μM): 2.3706
Percent Survival (A549 cells; Table 1, 10 μM): 100.4024%
Average Absorbance (A549 cells; Table 1, 20 μM): 2.3827
Percent Survival (A549 cells; Table 1, 20 μM): 100.9148%
Average Absorbance (A549 cells; Table 1, 30 μM): 2.1124
Percent Survival (A549 cells; Table 1, 30 μM): 89.4668%
Average Absorbance (A549 cells; Table 1, 40 μM): 0.8648
Percent Survival (A549 cells; Table 1, 40 μM): 36.6270%
IC50 (A549 cells; extrapolated from incomplete data (10-40 uM; CPA-31 10-30 μM), outside the measured range): 40.7 µM
Average Absorbance (A549 cells; Table 3, 10 μM): 2.4500
Percent Survival (A549 cells; Table 3, 10 μM): 100.2906%
Average Absorbance (A549 cells; Table 3, 20 μM): 2.3805
Percent Survival (A549 cells; Table 3, 20 μM): 97.4457%
Average Absorbance (A549 cells; Table 3, 30 μM): 1.4686
Percent Survival (A549 cells; Table 3, 30 μM): 60.1171%
Average Absorbance (A549 cells; Table 3, 40 μM): 0.4210
Percent Survival (A549 cells; Table 3, 40 μM): 17.2336%
Average Absorbance (A549 cells; Table 3, 50 μM): 0.3647
Percent Survival (A549 cells; Table 3, 50 μM): 14.9290%
Average Absorbance (A549 cells; Table 3, 60 μM): 0.5549
Percent Survival (A549 cells; Table 3, 60 μM): 22.7148%
Average Absorbance (A549 cells; Table 3, 70 μM): 0.5445
Percent Survival (A549 cells; Table 3, 70 μM): 22.2891%

Source: US7759510B2, “Platinum complexes and methods of use” (University of South Florida, priority 2003, dated 2010)
